Results taken from ChEMBL document CHEMBL1201862, “PubChem BioAssay data set” (2004).
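In this assay, cells in 96-well plates receive the compound at five concentrations for 48 hours. Endpoints are linearly interpolated between the surrounding concentrations. At the GI50, growth is halved.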 The source made the active and inactive calls. Cut-off read from the data, not from the text of the source: active = GI50 up to about 1.1 µM and inactive = higher.

Key:
Assay in all cases: NCI tumour cell line growth inhibition, 48 h
Hs-578T = test system: Hs-578T
DU-145 = test system: DU-145
MDA-MB-231 = test system: MDA-MB-231
MDA-MB-435 = test system: MDA-MB-435
T47D = test system: T47D
MDA-N = test system: MDA-N
PC-3 = test system: PC-3

Measured: GI50

CN(C)c1ccc(/C=C2\C[C@H]3[C@@H]4CCc5cc(O)ccc5[C@H]4CC[C@]3(C)C2=O)cc1
inactive: Hs-578T 10.5 µM | DU-145 > 100 µM | MDA-MB-231 16.5 µM | MDA-MB-435 > 100 µM | T47D > 100 µM | MDA-N > 100 µM | PC-3 > 100 µM
